# Reference: US5622933A, “Multiple branch peptide constructions for use against HIV” (priority 1993, dated 1997)
# Like-named read-outs stand apart in the source and are kept apart here. Ends that are not written are not given here.
# How the values were obtained:
# HIV = experiment: Inhibition of syncytia formation induced by HIV (summary statements); assay type: cell-based
# Description: (§1) CEM or C8166 cells were chronically infected with HIV-1 Lai or HIV-2 Rod, or HIV-1MN, respectively. Infected cells (1×10^4) were incubated for 2 hours with various concentrations of MBPCs in 96-well plates. Uninfected Molt-4 cells (4×10^4) were then added in […]. Syncytia were counted after 18 hours at 37° C.
# [1] = test system: Peripheral blood lymphocytes (PBL); experiment: PBL antigen and mitogen induced proliferation ([3H]thymidine incorporation); assay type: cell-based, human; conditions: MBPCs 5×10^-6 M
# Description: Peripheral blood lymphocytes (PBL) from 3 healthy HIV sero-negative donors were isolated from heparinized blood by the Ficoll-Hypaque technique. The culture medium was RPMI 1640 supplemented with 1% glutamine, 1% antibiotics and 10% heat inactivated fetal calf serum. Cells (10^5) were incubated in the presence of MBPCs (5×10^-6 M) with or without antigen (candidine, PPD) or mitogen (PHA). Antigen or mitogen treated cells were pulsed for eight hours with […] of [3H] thymidine. Then cells were harvested and [3H] thymidine incorporation in DNA was counted. […]
# HIV-1Lai = experiment: Syncytia formation blockage (chronically infected cells + uninfected Molt-4 cells); assay type: cell-based; design: key: -: The presence of syncytia is indicated by + signs, allocated in approximate proportion to the quantities counted; The presence of syncytia is indicated by + signs, allocated in approximate proportion to the quantities counted; ++: The presence of syncytia is indicated by + signs, allocated in approximate proportion to the quantities counted; +++: The presence of syncytia is indicated by + signs, allocated in approximate proportion to the quantities counted; ++++: The presence of syncytia is indicated by + signs, allocated in approximate proportion to the quantities counted
# Description: as §1
# HIV-2Rod = experiment: as above; assay type: cell-based; design: key: -: The presence of syncytia is indicated by + signs, allocated in approximate proportion to the quantities counted; The presence of syncytia is indicated by + signs, allocated in approximate proportion to the quantities counted; ++: The presence of syncytia is indicated by + signs, allocated in approximate proportion to the quantities counted; +++: The presence of syncytia is indicated by + signs, allocated in approximate proportion to the quantities counted; ++++: The presence of syncytia is indicated by + signs, allocated in approximate proportion to the quantities counted
# Description: as §1
# HIV-1MN = experiment: as above; assay type: cell-based; design: key: -: The presence of syncytia is indicated by + signs, allocated in approximate proportion to the quantities counted; The presence of syncytia is indicated by + signs, allocated in approximate proportion to the quantities counted; ++: The presence of syncytia is indicated by + signs, allocated in approximate proportion to the quantities counted; +++: The presence of syncytia is indicated by + signs, allocated in approximate proportion to the quantities counted; ++++: The presence of syncytia is indicated by + signs, allocated in approximate proportion to the quantities counted
# Description: as §1
# rabbits = experiment: ELISA of sera from rabbits immunized with MBPC.1 or MBPC.2; assay type: in vivo, rabbit; conditions: for reactivity of sera from rabbits immunized with the MBPC (ELISA, FIG. 6): against MBPC.1, MBPC.2, Mono.1 and V3 Cons; for antibody response in rabbits: rabbit, in vivo
# Description: Sera from rabbits immunized with either MBPC.1 or MBPC.2 were tested in ELISA for their ability to bind MBPC.1, MBPC.2, Mono.1 (the monomeric form of MBPC.1) and the North American/European consensus V3 sequence (V3 Cons, or Cs).
# In another set of experiments, sera from rabbits immunized with either MBPC.1 or MBPC.2 were tested (at 1/100 and 1/1000 dilutions) against various concentrations of MBPC.1, MBPC.2 and V3 Cons. FIGS. 7A, 7B and 7C clearly indicate that sera from rabbits immunized with MBPC.2 reacted in a dose dependant manner against MBPC.2 and V3 Cons. No reactivity against MBPC.1 was detected.
# HIV-1 (IIIB) = assay type: cell-based; conditions: for number of syncytia (HIV-1 induced cell fusion): 24 hours
# Excerpt: 50×10^3 8E5 cells chronically infected with a RT-deficient HIV-I (IIIB) isolate, were co-cultivated with 150×10^3 phytohemagglutinin (PHA) stimulated human peripheral blood lymphocytes (PBLs) in the presence of the indicated peptide in 96-well plates. The MBPCs used are described by the peptides attached, and the number thereof, to a core lysine matrix, which is designated HLC. All amino acids used for this experiment were in dextro form.
# HIV-1 (89.6) = experiment: Infection of and syncytia formation in human primary macrophages; assay type: cell-based; conditions: 5×10^-5 M; for inhibition of macrophage infection, in words: 10,000 TCID50
# Description: MBPCs were also evaluated for their ability to block the infection of human primary macrophages by a highly cytopathic macrophage-tropic isolate, HIV-1 (89.6). Mononuclear cells were isolated from leukophoresis units enriched for monocytes by Ficoll-Hypaque density separation. Macrophages were purified by adherence to plastic in RPMI 1640 supplemented with 10% fetal calf serum and 5% human AB serum. […] 5×10^5 cells were treated for 45 minutes with the indicated MBPC at concentrations of 5×10^-5 M and subsequently exposed to 10,000 TCID50 of the macrophage-tropic isolate HIV (89.6). […] After thorough washing, the cells were fed again with medium and analyzed for HIV-1 p24^gag production and syncytia formation 4 days post-infection.
substance,measurement,setting,value
(GPGRAF)8 -(K)4 -(K)2 -K-βA-OH [MBPC.3],MBPC concentration with which inhibiting effect on syncytia formation was observed in vitro,HIV,around 10^-6 M
same,[3H] Thymidine Incorporation,"[1]; Donor 1, Cand1",87000 cpm
same,[3H] Thymidine Incorporation,"[1]; Donor 1, Cand2",100000 cpm
same,[3H] Thymidine Incorporation,"[1]; Donor 1, PPD1",1300 cpm
same,[3H] Thymidine Incorporation,"[1]; Donor 1, PPD2",3100 cpm
same,[3H] Thymidine Incorporation,"[1]; Donor 2, Cand1",17000 cpm
same,[3H] Thymidine Incorporation,"[1]; Donor 2, Cand2",11000 cpm
same,[3H] Thymidine Incorporation,"[1]; Donor 2, PHA1",87000 cpm
same,[3H] Thymidine Incorporation,"[1]; Donor 2, PHA2",95000 cpm
same,[3H] Thymidine Incorporation,"[1]; Donor 2, PPD1",24000 cpm
same,[3H] Thymidine Incorporation,"[1]; Donor 2, PPD2",27000 cpm
same,[3H] Thymidine Incorporation,"[1]; Donor 3, Cand1",3200 cpm
same,[3H] Thymidine Incorporation,"[1]; Donor 3, Cand2",1200 cpm
same,[3H] Thymidine Incorporation,"[1]; Donor 3, PHA1",162000 cpm
same,[3H] Thymidine Incorporation,"[1]; Donor 3, PHA2",154000 cpm
same,[3H] Thymidine Incorporation,"[1]; Donor 3, PPD1",3900 cpm
same,[3H] Thymidine Incorporation,"[1]; Donor 3, PPD2",3100 cpm
same,Syncytia formation,HIV-1Lai; MBPC Conc. 5 × 10^-6 M,-
same,Syncytia formation,HIV-1Lai; MBPC Conc. 10^-6 M,+
same,Syncytia formation,HIV-1Lai; MBPC Conc. 10^-7 M,++++
same,Syncytia formation,HIV-2Rod; MBPC Conc. 5 × 10^-6 M,-
same,Syncytia formation,HIV-2Rod; MBPC Conc. 10^-6 M,-
same,Syncytia formation,HIV-2Rod; MBPC Conc. 10^-7 M,+
same,Syncytia formation,HIV-1MN; MBPC Conc. 5 × 10^-6 M,-
same,Syncytia formation,HIV-1MN; MBPC Conc. 10^-6 M,+
same,Syncytia formation,HIV-1MN; MBPC Conc. 10^-7 M,+++
same,"reactivity of sera from rabbits immunized with the MBPC (ELISA, FIG. 6)",rabbits,did not react against MBPC.1 (except for a weak reactivity of the serum from rabbit A)
same,antibody response in rabbits,rabbits,did not induce a significant antibody response
same,number of syncytia (HIV-1 induced cell fusion),HIV-1 (IIIB); 5 × 10^-5 M,- (- indicates the total absence of syncytia in the well)
same,number of syncytia (HIV-1 induced cell fusion),HIV-1 (IIIB); 5 × 10^-6 M,- (- indicates the total absence of syncytia in the well)
same,"inhibition of syncytia formation, in words",HIV-1 (IIIB); 5×10^-7 M,marked inhibition of syncytia formation
same,number of syncytia (HIV-1 induced cell fusion),HIV-1 (IIIB); 5 × 10^-7 M,±
same,"inhibition of macrophage infection, in words",HIV-1 (89.6),able to inhibit infection
same,giant cells (syncytia) in macrophage cultures,"HIV-1 (89.6); pretreated, 4 days post-infection",very few giant cells
"(RKSIHIGPGRAFYT)4 -(K)2 -K-βA-OH (also: four copies on lysine core (K)2-K-βA-OH) [MBPC.5, tetradecapeptide MBPC]","inhibiting effect on syncytia formation, in words",HIV,inhibiting effect at a slightly higher concentration
same,[3H] Thymidine Incorporation,"[1]; Donor 1, Cand1",80000 cpm
same,[3H] Thymidine Incorporation,"[1]; Donor 1, Cand2",85000 cpm
same,[3H] Thymidine Incorporation,"[1]; Donor 1, PPD1",1300 cpm
same,[3H] Thymidine Incorporation,"[1]; Donor 1, PPD2",2100 cpm
same,[3H] Thymidine Incorporation,"[1]; Donor 2, Cand1",15000 cpm
same,[3H] Thymidine Incorporation,"[1]; Donor 2, Cand2",9000 cpm
same,[3H] Thymidine Incorporation,"[1]; Donor 2, PHA1",115000 cpm
same,[3H] Thymidine Incorporation,"[1]; Donor 2, PHA2",111000 cpm
same,[3H] Thymidine Incorporation,"[1]; Donor 2, PPD1",24000 cpm
same,[3H] Thymidine Incorporation,"[1]; Donor 2, PPD2",26000 cpm
same,[3H] Thymidine Incorporation,"[1]; Donor 3, Cand1",3700 cpm
same,[3H] Thymidine Incorporation,"[1]; Donor 3, Cand2",1100 cpm
same,[3H] Thymidine Incorporation,"[1]; Donor 3, PHA1",228000 cpm
same,[3H] Thymidine Incorporation,"[1]; Donor 3, PHA2",188000 cpm
same,[3H] Thymidine Incorporation,"[1]; Donor 3, PPD1",4000 cpm
same,[3H] Thymidine Incorporation,"[1]; Donor 3, PPD2",2400 cpm
same,Syncytia formation,HIV-1Lai; MBPC Conc. 5 × 10^-6 M,-
same,Syncytia formation,HIV-1Lai; MBPC Conc. 10^-6 M,+
same,Syncytia formation,HIV-1Lai; MBPC Conc. 10^-7 M,++++
same,Syncytia formation,HIV-2Rod; MBPC Conc. 5 × 10^-6 M,-
same,Syncytia formation,HIV-2Rod; MBPC Conc. 10^-6 M,-
same,Syncytia formation,HIV-2Rod; MBPC Conc. 10^-7 M,+
same,Syncytia formation,HIV-1MN; MBPC Conc. 5 × 10^-6 M,-
same,Syncytia formation,HIV-1MN; MBPC Conc. 10^-6 M,++
same,Syncytia formation,HIV-1MN; MBPC Conc. 10^-7 M,++++
same,"reactivity of sera from rabbits immunized with the MBPC (ELISA, FIG. 6)",rabbits,recognized significantly MBPC.2 and V3 Cons
same,antibody response in rabbits,rabbits,did invoke such a response
same,"inhibition of syncytia formation, in words",HIV-1 (IIIB); 5×10^-6 M,able to inhibit syncytia formation
same,number of syncytia (HIV-1 induced cell fusion),HIV-1 (IIIB); 5 × 10^-6 M,- (- indicates the total absence of syncytia in the well)
same,number of syncytia (HIV-1 induced cell fusion),HIV-1 (IIIB); 5 × 10^-7 M,+++
same,"inhibition of macrophage infection, in words",HIV-1 (89.6),able to inhibit infection
